Assay results: patent US6803186B2, “Compositions and methods for increasing amino acid absorption in mammals” (The IAMS Company, priority 2001, dated 2004)
Square brackets hold non-standard residues; d marks the D form. Peptide text beside a SMILES is read from it. Sar = CNCC(=O)O

Target: T1, canine PepT1 (cPepT1) (Canis lupus familiaris, UniProt Q8WMX5)
T1 construct: endogenous in cells; host or cells: MDCK (Madin-Darby Canine Kidney) cells, whole-cell [3H]-GlySar uptake
T1 sequence (Q8WMX5 1-708): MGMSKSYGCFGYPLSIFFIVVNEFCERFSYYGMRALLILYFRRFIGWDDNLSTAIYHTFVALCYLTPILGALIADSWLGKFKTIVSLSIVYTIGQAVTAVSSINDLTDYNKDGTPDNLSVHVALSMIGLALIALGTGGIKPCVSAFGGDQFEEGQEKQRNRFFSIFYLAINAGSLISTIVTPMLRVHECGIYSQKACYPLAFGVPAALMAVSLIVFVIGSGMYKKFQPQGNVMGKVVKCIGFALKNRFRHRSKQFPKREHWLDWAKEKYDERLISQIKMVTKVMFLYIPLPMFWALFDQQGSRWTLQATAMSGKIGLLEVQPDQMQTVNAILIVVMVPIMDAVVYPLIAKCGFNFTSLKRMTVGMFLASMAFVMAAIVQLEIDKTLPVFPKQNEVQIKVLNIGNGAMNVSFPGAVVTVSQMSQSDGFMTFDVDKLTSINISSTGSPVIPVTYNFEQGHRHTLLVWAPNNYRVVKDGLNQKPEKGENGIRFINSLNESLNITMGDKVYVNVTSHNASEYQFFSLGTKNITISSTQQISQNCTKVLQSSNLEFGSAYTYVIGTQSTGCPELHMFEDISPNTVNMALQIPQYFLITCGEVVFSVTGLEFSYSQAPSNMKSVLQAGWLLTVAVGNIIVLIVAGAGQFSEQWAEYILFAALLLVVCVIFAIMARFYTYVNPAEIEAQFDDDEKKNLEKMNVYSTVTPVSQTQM
Test: Substrate regulation of H+-dependent GlySar uptake capacity of MDCK cells cultured in DMEM (Example 3, Trials 1 and 2)
Type: cell-based
Settings: 10 mM in DMEM, 24 h of culture
Experimental: All cells were plated (60,000/2 cm^2 well) and cultured (95% air/5% CO2, 37° C.) for 24 h in Dulbecco's Modified Eagle Media/10% fetal calf serum (FCS)/1%Antibiotic/Antimicrobial solution (ABAM) (DMEM media). Following these initial common culture conditions, cells then were cultured in DMEM, or DMEM that contained 10 mM of Camosine, GlyPhe, Phe, or Gly. Media were changed every 24 h. Media treatments (n=8) were as follows:
The measurement of [^3H]Glysarcosine uptake was performed by using a 24-well cluster tray method (Kilberg M S. Measurement of amino acid transport by hepatocytes in suspension and monolayer culture. Methods Enzym 1989; 173:564-575. Matthews J C, Aslanian A, McDonald K K, Yang W, Malandro M S, Novak D A, Kilberg M S. An expression system for mammalian amino acid transport using a stably maintained episomal vector. Anal Biochem 1997; 254:208-214), and used in Examples 1 and 2. Cells were cultured for 30 min in air at 37° C. in depletion medium (25 mM Hepes/Tris (pH 7.5), 140 mM NaCl, 5.4 mM KCl, 1.8 mM CaCl2, 0.8 mM MgSO4, and 5 mM glucose), to normalize intracellular nutrient pools before transport. The transport assays are initiated by replacing depletion medium with uptake medium (Depletion medium adjusted to pH 6.0) that contained 100 μM GlySar (5 μCi/mL, with [^3H]-GlySar supplying 2.88% of total GlySar). After a 30 minute incubation period, transport was terminated with four rinses of 4° C. depletion medium (pH 7.5). Two hundred and twenty μL of 10% trichloroacetic acid was added to each well, and the radioactivity of the supernatant quantified by liquid scintillation counting. The cells of each well are solubilized in 0.2 N NaOH/0.2% SDS and the protein quantified by using the modified Lowry assay, using bovine serum as a standard. Id. Peptide uptake will be reported as pmol* mg^−1 protein* 30 min^−1. Uptake measurements were taken after 24, 48, and 72 hours of culture in treatment media.
The MDCK cell line was maintained as described previously in the Methods section of Trial 1. […]

increase in GlySar uptake capacity over DMEM control media: about 30%
SMILES: CN(CC(=O)O)C(=O)CN [GlySar, glycylsarcosine] (H-Gly-[Sar]-OH)
